According to patent US10106544B2, “1,2-dihydro-3H-pyrrolo[1,2-C]imidazol-3-one derivatives and their use as antibacterial agents” (priority 2014, dated 2018):
In brackets after ≈: the same amount, converted by molar mass.

Columns and labels:
Assay in all cases: Bacterial growth minimal inhibitory concentration (microdilution, cation-adjusted Mueller-Hinton Broth)
Assay type in all cases: cell-based
[1] = tested on: E. coli ATCC25922; conditions: quinolone-sensitive strain; for MIC: Escherichia coli, ATCC25922, read-out: MIC for E. coli ATCC25922
Protocol: (§1) Minimal Inhibitory Concentrations (MICs; mg/L) were determined in cation-adjusted Mueller-Hinton Broth by a microdilution method following the description given in “Methods for Dilution Antimicrobial Susceptibility Tests for Bacteria that Grow Aerobically”, Approved standard, 7th ed., a Clinical and Laboratory Standards Institute (CLSI) Document M7-A7, Wayne, Pa., USA (2006).
(§2) All Example compounds were tested against several Gram-positive and Gram-negative bacteria. […] K. pneumoniae A-651 is a multiply-resistant strain (in particular quinolone-resistant), while E. coli ATCC25922 and P. aeruginosa ATCC27853 are quinolone-sensitive strains.

[2] = tested on: K. pneumoniae A-651; conditions: multiply-resistant strain (in particular quinolone-resistant); for MIC: Klebsiella pneumoniae, A651, read-out: MIC for K. Pneumoniae A-651
Protocol: as §1, §2

[3] = tested on: P. aeruginosa ATCC27853; conditions: for MIC: Pseudomonas aeruginosa, ATCC27853, quinolone-sensitive strain, read-out: MIC for P. aeruginosa ATCC27853
Protocol: as §1, §2

| Structure (SMILES) | MIC [1] [µg/mL] | MIC [2] [µg/mL] | MIC [3] [µg/mL] | MIC for E. coli ATCC25922 [1] [µg/mL] | MIC for K. Pneumoniae A-651 [2] [µg/mL] | MIC for P. aeruginosa ATCC27853 ([3]; quinolone-sensitive strain) [µg/mL] |
| --- | --- | --- | --- | --- | --- | --- |
| C[C@@](CCN1Cc2cc(C#CC#CC3(O)COC3)cn2C1=O)(C(=O)NO)S(C)(=O)=O [Example 4, (R)-N-hydroxy-4-(6-((3-hydroxyoxetan-3-yl)buta-1,3-diyn-1-yl)-3-oxo-1H-pyrrolo[1,2-c]imidazol-2(3H)-yl)-2-methyl-2-(methylsulfonyl)butanamide] | 2 (≈ 4.59 µM) | 2 (≈ 4.59 µM) | 4 (≈ 9.19 µM) | – | – | – |
| C[C@@](CCN1Cc2cc(C#Cc3ccc(C4(CN)CC4)cc3)cn2C1=O)(C(=O)NO)S(C)(=O)=O.O=CO [Example 8, (R)-4-(6-((4-(1-(aminomethyl)cyclopropyl)phenyl)ethynyl)-3-oxo-1H-pyrrolo[1,2-c]imidazol-2(3H)-yl)-N-hydroxy-2-methyl-2-(methylsulfonyl)butanamide formate] | 8 | 8 | 4 | – | – | – |
| C[C@@](CCN1Cc2cc(C#CC#C[C@H](O)CO)cn2C1=O)(C(=O)NO)S(C)(=O)=O [Example 11, (R)-4-(6-((S)-5,6-dihydroxyhexa-1,3-diyn-1-yl)-3-oxo-1H-pyrrolo[1,2-c]imidazol-2(3H)-yl)-N-hydroxy-2-methyl-2-(methylsulfonyl)butanamide] | 8 (≈ 18.9 µM) | 16 (≈ 37.8 µM) | 8 (≈ 18.9 µM) | – | – | – |
| C[C@H](O)c1ccc(C#Cc2cc3n(c2)C(=O)N(CC[C@](C)(C(=O)NO)S(C)(=O)=O)C3)cc1 [Example 14] | – | – | – | 0.125 | 0.25 | 1 |
| C[C@@](CCN1Cc2cc(C#CC#CC3(CO)CC3)cn2C1=O)(C(=O)NO)S(C)(=O)=O [Example 15, (R)-N-hydroxy-4-(6-((1-(hydroxymethyl)cyclopropyl)buta-1,3-diyn-1-yl)-3-oxo-1H-pyrrolo[1,2-c]imidazol-2(3H)-yl)-2-methyl-2-(methylsulfonyl)butanamide] | 0.5 (≈ 1.15 µM) | 1 (≈ 2.31 µM) | 1 (≈ 2.31 µM) | – | – | – |
| C[C@@](CCN1Cc2cc(C#Cc3ccc([C@@H](O)CO)cc3)cn2C1=O)(C(=O)NO)S(C)(=O)=O [Example 17, (R)-4-(6-((4-((R)-1,2-dihydroxyethyl)phenyl)ethynyl)-3-oxo-1H-pyrrolo[1,2-c]imidazol-2(3H)-yl)-N-hydroxy-2-methyl-2-(methylsulfonyl)butanamide] | 1 (≈ 2.1 µM) | 1 (≈ 2.1 µM) | 1 (≈ 2.1 µM) | – | – | – |
| C[C@@](CCN1Cc2cc(C#Cc3ccc([C@H](O)CO)cc3)cn2C1=O)(C(=O)NO)S(C)(=O)=O [Example 18, (R)-4-(6-((4-((S)-1,2-dihydroxyethyl)phenyl)ethynyl)-3-oxo-1H-pyrrolo[1,2-c]imidazol-2(3H)-yl)-N-hydroxy-2-methyl-2-(methylsulfonyl)butanamide] | 0.5 (≈ 1.05 µM) | 1 (≈ 2.1 µM) | 1 (≈ 2.1 µM) | – | – | – |
| C[C@@](CCN1Cc2cc(C#Cc3ccc(N4CCN(CCO)C4=O)cc3)cn2C1=O)(C(=O)NO)S(C)(=O)=O [Example 20, (R)-N-hydroxy-4-(6-((4-(3-(2-hydroxyethyl)-2-oxoimidazolidin-1-yl)phenyl)ethynyl)-3-oxo-1H-pyrrolo[1,2-c]imidazol-2(3H)-yl)-2-methyl-2-(methylsulfonyl)butanamide] | 1 (≈ 1.84 µM) | 4 (≈ 7.36 µM) | 4 (≈ 7.36 µM) | – | – | – |
| C[C@@](CCN1Cc2cc(C#Cc3ccc(NC(=O)CO)c(F)c3)cn2C1=O)(C(=O)NO)S(C)(=O)=O [Example 21, (R)-4-(6-((3-fluoro-4-(2-hydroxyacetamido)phenyl)ethynyl)-3-oxo-1H-pyrrolo[1,2-c]imidazol-2(3H)-yl)-N-hydroxy-2-methyl-2-(methylsulfonyl)butanamide] | 0.25 (≈ 0.494 µM) | 1 (≈ 1.97 µM) | 1 (≈ 1.97 µM) | – | – | – |

Further lines, results first:

| MIC [1] [µg/mL] | MIC [2] [µg/mL] | MIC [3] [µg/mL] | MIC for E. coli ATCC25922 [1] [µg/mL] | MIC for K. Pneumoniae A-651 [2] [µg/mL] | MIC for P. aeruginosa ATCC27853 ([3]; quinolone-sensitive strain) [µg/mL] | Structure (SMILES) |
| --- | --- | --- | --- | --- | --- | --- |
| ≤ 0.063 | 0.125 (≈ 0.257 µM) | 0.5 (≈ 1.03 µM) | – | – | – | C[C@@](CCN1Cc2cc(C#Cc3ccc([C@@H]4C[C@H]4CO)cc3)cn2C1=O)(C(=O)NO)S(C)(=O)=O [Example 5, (R)-N-hydroxy-4-(6-((4-((1R,2R)-2-(hydroxymethyl)cyclopropyl)phenyl)ethynyl)-3-oxo-1H-pyrrolo[1,2-c]imidazol-2(3H)-yl)-2-methyl-2-(methylsulfonyl)butanamide] |
| 0.031 (≈ 0.0638 µM) | 0.125 (≈ 0.257 µM) | 0.5 (≈ 1.03 µM) | – | – | – | C[C@@](CCN1Cc2cc(C#Cc3ccc([C@H]4C[C@@H]4CO)cc3)cn2C1=O)(C(=O)NO)S(C)(=O)=O [Example 6, (R)-N-hydroxy-4-(6-((4-((1S,2S)-2-(hydroxymethyl)cyclopropyl)phenyl)ethynyl)-3-oxo-1H-pyrrolo[1,2-c]imidazol-2(3H)-yl)-2-methyl-2-(methylsulfonyl)butanamide] |
| 0.125 (≈ 0.257 µM) | 0.25 (≈ 0.515 µM) | 0.5 (≈ 1.03 µM) | – | – | – | C[C@@](CCN1Cc2cc(C#Cc3ccc(C4(CO)CC4)cc3)cn2C1=O)(C(=O)NO)S(C)(=O)=O [Example 7, (R)-N-hydroxy-4-(6-((4-(1-(hydroxymethyl)cyclopropyl)phenyl)ethynyl)-3-oxo-1H-pyrrolo[1,2-c]imidazol-2(3H)-yl)-2-methyl-2-(methylsulfonyl)butanamide] |
| 0.25 (≈ 0.513 µM) | 0.5 (≈ 1.03 µM) | 0.5 (≈ 1.03 µM) | – | – | – | CC(C)(CO)c1ccc(C#Cc2cc3n(c2)C(=O)N(CC[C@](C)(C(=O)NO)S(C)(=O)=O)C3)cc1 [Example 9, (R)-N-hydroxy-4-(6-((4-(1-hydroxy-2-methylpropan-2-yl)phenyl)ethynyl)-3-oxo-1H-pyrrolo[1,2-c]imidazol-2(3H)-yl)-2-methyl-2-(methylsulfonyl)butanamide] |
| 0.25 (≈ 0.528 µM) | 0.25 (≈ 0.528 µM) | 0.5 (≈ 1.06 µM) | – | – | – | CC(C)(O)c1ccc(C#Cc2cc3n(c2)C(=O)N(CC[C@](C)(C(=O)NO)S(C)(=O)=O)C3)cc1 [Example 10, (R)-N-hydroxy-4-(6-((4-(2-hydroxypropan-2-yl)phenyl)ethynyl)-3-oxo-1H-pyrrolo[1,2-c]imidazol-2(3H)-yl)-2-methyl-2-(methylsulfonyl)butanamide] |
| 0.25 (≈ 0.559 µM) | 0.25 (≈ 0.559 µM) | 0.25 (≈ 0.559 µM) | – | – | – | C[C@@](CCN1Cc2cc(C#CC#CC[C@@H]3C[C@@H]3CO)cn2C1=O)(C(=O)NO)S(C)(=O)=O [Example 12, (R)-N-hydroxy-4-(6-(5-((1S,2S)-2-(hydroxymethyl)cyclopropyl)penta-1,3-diyn-1-yl)-3-oxo-1H-pyrrolo[1,2-c]imidazol-2(3H)-yl)-2-methyl-2-(methylsulfonyl)butanamide] |
| 0.125 (≈ 0.272 µM) | 0.25 (≈ 0.544 µM) | 0.5 (≈ 1.09 µM) | – | – | – | C[C@@H](O)c1ccc(C#Cc2cc3n(c2)C(=O)N(CC[C@](C)(C(=O)NO)S(C)(=O)=O)C3)cc1 [Example 13, (R)-N-hydroxy-4-(6-((4-((R)-1-hydroxyethyl)phenyl)ethynyl)-3-oxo-1H-pyrrolo[1,2-c]imidazol-2(3H)-yl)-2-methyl-2-(methylsulfonyl)butanamide] |
| ≤ 0.063 | 0.25 (≈ 0.544 µM) | 0.5 (≈ 1.09 µM) | – | – | – | C[C@@](CCN1Cc2cc(C#Cc3ccc(CCO)cc3)cn2C1=O)(C(=O)NO)S(C)(=O)=O [Example 16, (R)-N-hydroxy-4-(6-((4-(2-hydroxyethyl)phenyl)ethynyl)-3-oxo-1H-pyrrolo[1,2-c]imidazol-2(3H)-yl)-2-methyl-2-(methylsulfonyl)butanamide] |
| 0.25 (≈ 0.496 µM) | 0.5 (≈ 0.993 µM) | 1 (≈ 1.99 µM) | – | – | – | C[C@@](CCN1Cc2cc(C#Cc3ccc(C4(CO)CC4)cc3F)cn2C1=O)(C(=O)NO)S(C)(=O)=O [Example 19, (R)-4-(6-((2-fluoro-4-(1-(hydroxymethyl)cyclopropyl)phenyl)ethynyl)-3-oxo-1H-pyrrolo[1,2-c]imidazol-2(3H)-yl)-N-hydroxy-2-methyl-2-(methylsulfonyl)butanamide] |
